Results on 5 molecules are retold here after patent EP0350260A2, “New oxamic acid compounds and pharmaceutical composition for use in improvement of damaged cerebral functions of brain” (MEIJI SEIKA KAISHA LTD., priority 1988, dated 1990).

Structures are written as SMILES.

One data set concerns mice having cerebral anoxia experimentally induced under the load of hypobaric hypoxia. Description: Survival time of mice with cerebral anoxia induced under hypobaric hypoxia (Test 1). It counts as in vivo. As to conditions: 100 mg/kg intraperitoneally, 30 minutes before evacuation to 190 mmHg; 6 ddy mice per group; untreated control group = 100. The method, then:
ddy Mice (6 weeks old, body weight: 25-30 g, each group comprising 6 ddy mice) were administered intraperitoneally with the compounds of the present invention, respectively. Each of the tested compounds of this invention had been beforehand dissolved in redistilled water and the aqueous solution was administered in an amount of 0.1 ml per 10 g body weight. Thirty minutes after the administration, the mice were individually placed in hermetic transparent containers. The containers were rapidly evacuated to 190 mmHg by means of a vacuum pump. Time was measured from the initiation of the evacuation to the death of each mouse due to respiratory failure. That time was recorded as the survival time (seconds) of mice.
The ratios of the survival time of the groups of the treated mice which received the administration of the tested compounds of this invention divided by the survival time of a control group (untreated) which received no administration of the drug were calculated.
For `CCCN(CC)C(=O)C(=O)O` [N-ethyl-N-n-propyl-oxamic acid, N-ethyl-N-n-propyloxamic acid], the “Survival time ratio (control group: 100)” value was 166.
As to `CC(C)N(C(=O)C(=O)O)C(C)C` [N,N-di-isopropyl-oxamic acid, N,N-di-isopropyloxamic acid], the “Survival time ratio (control group: 100)” value is 155.
As for `CCCN(CCC)C(=O)C(=O)O` [N,N-di-n-propyl-oxamic acid, N,N-di-n-propyloxamic acid], the “Survival time ratio (control group: 100)” value amounted to 181.
For the molecule `CCCCN(CC)C(=O)C(=O)O` [N-ethyl-N-butyl-oxamic acid, N-ethyl-N-n-butyloxamic acid], the “Survival time ratio (control group: 100)” value worked out at 116.
With `C=CCN(CC=C)C(=O)C(=O)O` [N,N-di-allyloxamic acid], the “Survival time ratio (control group: 100)” value turned out to be 187.

The subject of the next data set is ddy mice.
Assay: not given
The following applies: mouse, in vivo. On the procedure:
The toxicity of the compounds of the general formula (I) usable in this invention was evaluated by using N,N-di-isopropyloxamic acid as one example.
In the case of `CC(C)N(C(=O)C(=O)O)C(C)C` [N,N-di-isopropyl-oxamic acid, N,N-di-isopropyloxamic acid], the “toxicity (survival of mice)” value was “all the mice tolerated it and remained alive”.
